Experimental data taken from US9427482B2, “Agents for clearing biomolecules from circulation” (KONINKLIJKE PHILIPS N.V., priority 2010, dated 2016).

Test system: LS174T xenografts
Experiment: Biodistribution, blood kinetics and excretion of CC49-TCO-18 pretargeted ^177Lu-tetrazine 15 (Example 12)
Format: in vivo, mice
Procedure: Groups of 4 mice bearing LS174T xenografts (70-100 mm^3) were injected either with directly labeled ^177Lu-DOTA-CC49 (100 μg/100 μl, ca. 0.5 MBq per mouse) or with CC49-TCO-18 pretargeted ^177Lu-tetrazine 15 (100 μg/100 μl CC49-TCO-18 followed by two 160 μg/100 μl doses of galactose-MSA-tetrazine 12 at 30 and 48 hours and by 8.52 μg/80 μl ^177Lu-tetrazine 15, 0.8-1.2 MBq per mouse, containing 100 μg gentisic acid). One group of mice injected with ^177Lu-DOTA-CC49 and one injected with pretargeted ^177Lu-tetrazine were used to evaluate the early blood distribution of the two tracers by withdrawing blood samples from the vena saphena at selected time points (2, 30, and 60 min for ^177Lu-DOTA-CC49 and 2, 5, 10, 20, 30, and 45 min for pretargeted ^177Lu-tetrazine) (FIG. 15). These two groups of mice were then sacrificed 3 h and 1 h after the injection of ^177Lu-DOTA-CC49 and ^177Lu-tetrazine, respectively. All other groups of mice were sacrificed at various time points up to 7 days post tracer injection. After sacrifice, blood was withdrawn by heart puncture and selected organs and tissues were harvested and blotted dry. The blood samples and tissues were weighed, added with 1 mL PBS and the radioactivity was counted in a gamma counter along with standards to determine the % ID/g and % ID (Tables 7-8). Two additional groups of tumor bearing mice were used for excretion profiles (FIG. 16). The mice injected with ^177Lu-DOTA-CC49 were housed in filtered caging units and at various time points the bedding was counted in a gamma counter along with standards. The other group of mice was injected with ^177Lu-tetrazine at higher specific activity (ca. 12 MBq/8.52 μg tetrazine per mouse) and whole body clearance was monitored by measuring the animals in a dose calibrator at various time points.

O=C([O-])CN1CCN(CC(=O)[O-])CCN(CC(=O)NCCOCCOCCOCCOCCOCCOCCOCCOCCOCCOCCOCCNC(=O)CCCC(=O)Nc2ccc(-c3nnc(-c4ccccn4)nn3)nc2)CCN(CC(=O)[O-])CC1.[177Lu+3] [^177Lu-tetrazine]
biodistribution bladder (1 hours): 2.21 ± 1.15 % ID/g
biodistribution blood (1 hours): 0.42 ± 0.20 % ID/g
biodistribution bone (1 hours): 1.08 ± 1.34 % ID/g
biodistribution brain (1 hours): 0.03 ± 0.03 % ID/g
biodistribution heart (1 hours): 0.16 ± 0.05 % ID/g
biodistribution kidney (1 hours): 2.38 ± 0.55 % ID/g
biodistribution lg. intestine (1 hours): 0.38 ± 0.11 % ID
biodistribution liver (1 hours): 0.29 ± 0.08 % ID/g
biodistribution lung (1 hours): 0.54 ± 0.15 % ID/g
biodistribution muscle (1 hours): 0.23 ± 0.21 % ID/g
biodistribution ovaries (1 hours): 0.57 ± 0.37 % ID/g
biodistribution sm. intestine (1 hours): 0.16 ± 0.03 % ID
biodistribution spleen (1 hours): 0.17 ± 0.04 % ID/g
biodistribution stomach (1 hours): 0.10 ± 0.10 % ID
biodistribution tumor (1 hours): 4.71 ± 1.13 % ID/g
biodistribution uterus (1 hours): 2.80 ± 1.64 % ID/g
biodistribution bladder (3 hours): 0.85 ± 0.64 % ID/g
biodistribution blood (3 hours): 0.03 ± 0.00 % ID/g
biodistribution bone (3 hours): 0.17 ± 0.19 % ID/g
biodistribution brain (3 hours): 0.00 ± 0.00 % ID/g
biodistribution heart (3 hours): 0.04 ± 0.00 % ID/g
biodistribution kidney (3 hours): 1.58 ± 0.14 % ID/g
biodistribution lg. intestine (3 hours): 0.15 ± 0.04 % ID
biodistribution liver (3 hours): 0.18 ± 0.02 % ID/g
biodistribution lung (3 hours): 0.21 ± 0.03 % ID/g
biodistribution muscle (3 hours): 0.05 ± 0.03 % ID/g
biodistribution ovaries (3 hours): 0.21 ± 0.19 % ID/g
biodistribution sm. intestine (3 hours): 0.22 ± 0.07 % ID
biodistribution spleen (3 hours): 0.09 ± 0.01 % ID/g
biodistribution stomach (3 hours): 0.02 ± 0.01 % ID
biodistribution tumor (3 hours): 5.38 ± 0.48 % ID/g
biodistribution uterus (3 hours): 0.35 ± 0.42 % ID/g
injected activity excreted in the urine (3 hours post injection): over 95%
tumor-to-blood ratio (3 hours post injection): ~200
biodistribution bladder (6 hours): 0.20 ± 0.08 % ID/g
biodistribution blood (6 hours): 0.02 ± 0.00 % ID/g
biodistribution bone (6 hours): 0.03 ± 0.00 % ID/g
biodistribution brain (6 hours): 0.00 ± 0.00 % ID/g
biodistribution heart (6 hours): 0.03 ± 0.01 % ID/g
biodistribution kidney (6 hours): 1.09 ± 0.18 % ID/g
biodistribution lg. intestine (6 hours): 0.05 ± 0.01 % ID
biodistribution liver (6 hours): 0.15 ± 0.01 % ID/g
biodistribution lung (6 hours): 0.11 ± 0.02 % ID/g
biodistribution muscle (6 hours): 0.02 ± 0.00 % ID/g
biodistribution ovaries (6 hours): 0.09 ± 0.02 % ID/g
biodistribution sm. intestine (6 hours): 0.38 ± 0.26 % ID
biodistribution spleen (6 hours): 0.07 ± 0.01 % ID/g
biodistribution stomach (6 hours): 0.01 ± 0.01 % ID
biodistribution tumor (6 hours): 4.53 ± 1.69 % ID/g
biodistribution uterus (6 hours): 0.10 ± 0.04 % ID/g
biodistribution bladder (1 day): 0.20 ± 0.06 % ID/g
biodistribution blood (1 day): 0.01 ± 0.00 % ID/g
biodistribution bone (1 day): 0.03 ± 0.01 % ID/g
biodistribution brain (1 day): 0.00 ± 0.00 % ID/g
biodistribution heart (1 day): 0.03 ± 0.00 % ID/g
biodistribution kidney (1 day): 1.01 ± 0.13 % ID/g
biodistribution lg. intestine (1 day): 0.06 ± 0.06 % ID
biodistribution liver (1 day): 0.13 ± 0.02 % ID/g
biodistribution lung (1 day): 0.10 ± 0.01 % ID/g
biodistribution muscle (1 day): 0.02 ± 0.00 % ID/g
biodistribution ovaries (1 day): 0.08 ± 0.03 % ID/g
biodistribution sm. intestine (1 day): 0.09 ± 0.05 % ID
biodistribution spleen (1 day): 0.07 ± 0.01 % ID/g
biodistribution stomach (1 day): 0.04 ± 0.05 % ID
biodistribution tumor (1 day): 3.83 ± 0.95 % ID/g
biodistribution uterus (1 day): 0.09 ± 0.02 % ID/g
biodistribution bladder (2 days): 0.12 ± 0.07 % ID/g
biodistribution blood (2 days): 0.01 ± 0.00 % ID/g
biodistribution bone (2 days): 0.02 ± 0.00 % ID/g
biodistribution brain (2 days): 0.00 ± 0.00 % ID/g
biodistribution heart (2 days): 0.03 ± 0.01 % ID/g
biodistribution kidney (2 days): 0.49 ± 0.07 % ID/g
biodistribution lg. intestine (2 days): 0.07 ± 0.08 % ID
biodistribution liver (2 days): 0.11 ± 0.02 % ID/g
biodistribution lung (2 days): 0.08 ± 0.03 % ID/g
biodistribution muscle (2 days): 0.02 ± 0.01 % ID/g
biodistribution ovaries (2 days): 0.10 ± 0.06 % ID/g
biodistribution sm. intestine (2 days): 0.06 ± 0.06 % ID
biodistribution spleen (2 days): 0.07 ± 0.01 % ID/g
biodistribution stomach (2 days): 0.01 ± 0.01 % ID
biodistribution tumor (2 days): 3.15 ± 1.32 % ID/g
biodistribution uterus (2 days): 0.12 ± 0.09 % ID/g
biodistribution bladder (4 days): 0.13 ± 0.04 % ID/g
biodistribution blood (4 days): 0.00 ± 0.00 % ID/g
biodistribution bone (4 days): 0.02 ± 0.01 % ID/g
biodistribution brain (4 days): 0.00 ± 0.00 % ID/g
biodistribution heart (4 days): 0.02 ± 0.00 % ID/g
biodistribution kidney (4 days): 0.34 ± 0.02 % ID/g
biodistribution lg. intestine (4 days): 0.03 ± 0.02 % ID
biodistribution liver (4 days): 0.14 ± 0.02 % ID/g
biodistribution lung (4 days): 0.06 ± 0.01 % ID/g
biodistribution muscle (4 days): 0.01 ± 0.00 % ID/g
biodistribution ovaries (4 days): 0.09 ± 0.02 % ID/g
biodistribution sm. intestine (4 days): 0.04 ± 0.04 % ID
biodistribution spleen (4 days): 0.07 ± 0.01 % ID/g
biodistribution stomach (4 days): 0.01 ± 0.00 % ID
biodistribution tumor (4 days): 2.06 ± 0.84 % ID/g
biodistribution uterus (4 days): 0.10 ± 0.07 % ID/g
biodistribution bladder (7 days): 0.15 ± 0.02 % ID/g
biodistribution blood (7 days): 0.00 ± 0.00 % ID/g
biodistribution bone (7 days): 0.01 ± 0.00 % ID/g
biodistribution brain (7 days): 0.00 ± 0.00 % ID/g
biodistribution heart (7 days): 0.01 ± 0.00 % ID/g
biodistribution kidney (7 days): 0.19 ± 0.04 % ID/g
biodistribution lg. intestine (7 days): 0.02 ± 0.01 % ID
biodistribution liver (7 days): 0.13 ± 0.03 % ID/g
biodistribution lung (7 days): 0.04 ± 0.01 % ID/g
biodistribution muscle (7 days): 0.01 ± 0.00 % ID/g
biodistribution ovaries (7 days): 0.08 ± 0.04 % ID/g
biodistribution sm. intestine (7 days): 0.07 ± 0.04 % ID
biodistribution spleen (7 days): 0.08 ± 0.01 % ID/g
biodistribution stomach (7 days): 0.01 ± 0.00 % ID
biodistribution tumor (7 days): 1.02 ± 0.36 % ID/g
biodistribution uterus (7 days): 0.21 ± 0.16 % ID/g
T1/2, elimination from blood (CC49-TCO pretargeted mice): 11.2 min
tumor-to-blood ratio (by the end of the experiment (7 days)): over 500
